Earlier results in patent US20240197589A1, “ORAL CARE COMPOSITIONS COMPRISING GERANYLGERANIOL AND METHODS OF USE THEREOF” (AMERICAN RIVER NUTRITION, LLC, priority 2022, published 2024).

Legend:
Staphylococcus aureus = conditions: S. aureus
[1] = tested on: Mycobacterium tuberculosis; conditions: M. tuberculosis, at 6.25 ug/ml
[2] = animals treated with both bisphosphonates and GG
[3] = in combination with amoxicillin, 200 mg two times per day for 5 days, following third molar removal

Row | Compound | concentration for optimum bactericidal effect (Staphylococcus aureus) | decrease of viable bacterial cell count (Staphylococcus aureus; 0.15-1.25 ug/ml, within two hours) | inhibition of the bacterium [1] | improved gum and extracted socket healing [2] | dilution effective against Streptococcus mutans (Streptococcus mutans) | dilution exerting antibacterial effects against Porphyromonas gingivalis (Porphyromonas gingivalis) | study subjects with reduced swelling and pain [3]
1 | CC(C)=CCC/C(C)=C/CC/C(C)=C/CC/C(C)=C/CO [GG, geranylgeraniol] | 0.15 to 1.25 µg/mL | decreased viable bacterial cell count by a factor of two | 96% | 45-67% | – | – | –
2 | Bromelain | – | – | – | – | 2 mg/mL | 4.15 mg/mL | up to 70%
